The values that follow come from ChEMBL document CHEMBL1201862, “PubChem BioAssay data set” (2004).

Common to all, as to experiment: NCI anticancer screen, dose series, 48 h
Experiment [1] has as its system SK-OV-3.
Experiment [2] deals with Hs-578T.
Experiment [3] has as its system EKVX.
For experiment [4], the system named is A498.
In experiment [5] the test system is T47D.
Experiment [6] deals with PC-3.
In experiment [7] the test system is SF-539.
Experiment [8] has as its system ACHN.
In experiment [9] the test system is OVCAR-4.
Experiment [10] has as its system K562.
Experiment [11] relates to MCF7.
For experiment [12], the system named is NCI/ADR-RES.
Experiment [13] deals with OVCAR-8.
The subject of experiment [14] is SF-295.
Experiment [15] concerns MDA-MB-435.
For experiment [16], the system named is SN12C.
Experiment [17] deals with M14.
The test system of experiment [18] is NCI-H522.
Experiment [19] has as its system RPMI-8226.

Each structure is given as a SMILES string.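 Where inhibition never reached the appropriate level, the endpoint shown equals the highest concentration tested. Otherwise, values were interpolated linearly from a five-concentration, 48-hour dose response in 96-well plates. The concentration for 50% growth inhibition is given as GI50.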 Calls of active or inactive are those of the source. Rule as the data show it: active = GI50 up to about 1.1 µM and inactive = higher.

Turning to `CC(C)(C)c1cc(C(O)(C(=O)O)C(=O)O)cc(C(C)(C)C)c1O`, the GI50 in experiment [1], in experiment [2], in experiment [3], in experiment [4], in experiment [5] and in experiment [6] was > 100 µM (inactive) throughout. The GI50 in experiment [7], in experiment [8], in experiment [9], in experiment [10], in experiment [11] and in experiment [12] was > 100 µM (inactive) each time. In addition, the GI50 in experiment [13], in [14], in [15], in experiment [16], in experiment [17] and in experiment [18] was > 100 µM (inactive) each time. Besides, the GI50 in experiment [19] was > 100 µM (inactive).

`CSCCC(NC(=O)OC(C)(C)C)C(=O)NCCNc1ccc(NCCNC(=O)C(CCSC)NC(=O)OC(C)(C)C)c2c1C(=O)c1ccccc1C2=O` (stereo not given): the GI50 in [1] was 8.89 µM (inactive); in experiment [2], 2.39 µM (inactive); in [3] it was 8.11 µM (inactive); in experiment [4] it was 4.62 µM (inactive); in [5], 5.21 µM (inactive); in experiment [6], 5.31 µM (inactive). Further, the GI50 in experiment [7] is 2.71 µM (inactive); in experiment [8], 7.13 µM (inactive); in experiment [9] it was 6.7 µM (inactive); in [10] it was 2.75 µM (inactive); in experiment [11], 6.01 µM (inactive); in experiment [12], > 74.1 µM (inactive). Also, the GI50 in experiment [13] was 1.96 µM (inactive); in [14] it was 7.57 µM (inactive); in experiment [15] it was 2.63 µM (inactive); in experiment [16], 7.71 µM (inactive); in [17], 3.85 µM (inactive); in [18], 1.39 µM (inactive). The GI50 in [19] is 3.01 µM (inactive).

With `CCOC(=O)Cc1csc(N/N=C2\C(=O)Nc3ccccc32)n1`, the GI50 was 49.4 µM (inactive) in experiment [1]; 56.1 µM (inactive) in experiment [2]; 32.1 µM (inactive) in experiment [3]; 27.4 µM (inactive) in experiment [4]; 27.7 µM (inactive) in experiment [5]; 30.1 µM (inactive) in experiment [6]. The GI50 in experiment [7] was 30.7 µM (inactive); in [8], 32.4 µM (inactive); in [9] it was 56.9 µM (inactive); in experiment [10], 40.4 µM (inactive); in experiment [11], 33.1 µM (inactive); in experiment [12] it was 31.8 µM (inactive). Also, the GI50 in experiment [13] is 40.6 µM (inactive); in experiment [14], 38.7 µM (inactive); in [15] it was 55.6 µM (inactive); in [16], > 100 µM (inactive); in experiment [17] it was 41.7 µM (inactive); in [18], 19 µM (inactive). In addition, the GI50 in experiment [19] is 36.5 µM (inactive).

In the case of `COc1ccc(/C=C/c2nccc3ccccc23)cc1OC`, the GI50 in [1] was > 10 µM (inactive); in [2], > 10 µM (inactive); in experiment [3] it was > 10 µM (inactive); in [4], 9.73 µM (inactive); in experiment [5] it was > 10 µM (inactive); in experiment [6], > 10 µM (inactive). The GI50 in experiment [7] is > 10 µM (inactive); in [8] it was > 10 µM (inactive); in experiment [9], > 10 µM (inactive); in [10], 5.5 µM (inactive); in experiment [11] it was 2.43 µM (inactive); in [12], 9.38 µM (inactive). For the same molecule, the GI50 is > 10 µM (inactive) in experiment [13]; > 10 µM (inactive) in experiment [14]; 6.64 µM (inactive) in experiment [15]; 9.48 µM (inactive) in experiment [16]; > 10 µM (inactive) in experiment [17]; > 10 µM (inactive) in experiment [18]. The GI50 in experiment [19] is 5.98 µM (inactive).

For `CC(C)=C[C@@H]1C[C@H](n2cc(C)c(=O)[nH]c2=O)ON1CCO`, the GI50 in [1], in [2], in experiment [3], in experiment [4], in [5] and in experiment [6] was > 100 µM (inactive) in each case. Further, the GI50 in experiment [7], in [8], in experiment [9], in experiment [10], in experiment [11] and in [12] was > 100 µM (inactive) in each case. Moreover, the GI50 in [13], in [14], in experiment [15], in experiment [16], in experiment [17] and in experiment [18] was > 100 µM (inactive) in each case. Moreover, the GI50 in experiment [19] is > 100 µM (inactive).

Regarding `CC(C)(O)C1OCC(C2CCC3(C)C4=CCC5C(C)(C)C(O)CCC5(C)C4CCC23C)CC1O` (stereo not given), the GI50 is 15.8 µM (inactive) in [1]; 13.8 µM (inactive) in experiment [2]; 17.2 µM (inactive) in experiment [3]; 16.7 µM (inactive) in experiment [4]; 13.7 µM (inactive) in [5]; 10.5 µM (inactive) in experiment [6]. The GI50 in experiment [7] was 13.6 µM (inactive); in [8], 15.3 µM (inactive); in experiment [9] it was 11.8 µM (inactive); in experiment [10], 4.44 µM (inactive); in experiment [11], 11.6 µM (inactive); in experiment [12], 12.6 µM (inactive). The GI50 in experiment [13] was 14.4 µM (inactive); in experiment [14], 13.9 µM (inactive); in [15] it was 15.5 µM (inactive); in [16], 14.4 µM (inactive); in [17], 27.7 µM (inactive); in experiment [18], 11.5 µM (inactive). For the same molecule, the GI50 in [19] is 7.94 µM (inactive).

On to `C/C(=N\Nc1nc2ccccc2o1)c1cccc[n+]1[O-]`, for which the GI50 in experiment [1] is 22.5 µM (inactive); in [2], > 100 µM (inactive); in experiment [3], 11 µM (inactive); in experiment [4], 45.1 µM (inactive); in experiment [5], 2.89 µM (inactive); in [6], 5.36 µM (inactive). Also, the GI50 is 23.4 µM (inactive) in experiment [7]; 12.6 µM (inactive) in experiment [8]; 5.45 µM (inactive) in [9]; 7.23 µM (inactive) in [10]; 5.98 µM (inactive) in [11]; 3.6 µM (inactive) in experiment [12]. The GI50 was 20 µM (inactive) in [13]; 0.0877 µM (active) in [14]; 44 µM (inactive) in [15]; 18.6 µM (inactive) in experiment [16]; 5.87 µM (inactive) in [17]; 3.86 µM (inactive) in [18]. The GI50 in experiment [19] was 12 µM (inactive).

Regarding `CC(C)C1CSC2N1C(=O)C2(OCc1ccccc1)C1CC1` (stereo not given), the GI50 in [1] is > 100 µM (inactive); in [2] it was > 100 µM (inactive); in experiment [3] it was > 100 µM (inactive); in experiment [4], 51.3 µM (inactive); in experiment [5], 97.5 µM (inactive); in experiment [6], 69 µM (inactive). Further, the GI50 in [7] was > 100 µM (inactive); in experiment [8] it was > 100 µM (inactive); in experiment [9], > 100 µM (inactive); in experiment [10], 67.8 µM (inactive); in [11], > 100 µM (inactive); in experiment [12], 63.4 µM (inactive). In addition, the GI50 in experiment [13], in [14], in experiment [15], in experiment [16], in experiment [17] and in experiment [18] was > 100 µM (inactive) in each case. In experiment [19], the GI50 was 89.1 µM (inactive).

As to `Cc1c2c(n(CCc3ccc(Cl)cc3)c1C)NC(c1ccccc1)C(C#N)S2(=O)=O` (stereo not given), the GI50 is > 90.6 µM (inactive) in experiment [1]; 26.1 µM (inactive) in experiment [2]; 31.3 µM (inactive) in [3]; > 85.7 µM (inactive) in experiment [4]; 17.9 µM (inactive) in experiment [5]; 19.6 µM (inactive) in experiment [6]. Also, the GI50 in experiment [7] is 34.8 µM (inactive); in experiment [8], > 100 µM (inactive); in [9] it was > 70.1 µM (inactive); in experiment [10], 5.14 µM (inactive); in [11], 5.14 µM (inactive); in experiment [12] it was > 63 µM (inactive). Moreover, the GI50 in experiment [13] is 47 µM (inactive); in [14], > 53.5 µM (inactive); in [15] it was 11.1 µM (inactive); in [16], > 72.1 µM (inactive); in [17], 27.2 µM (inactive); in experiment [18] it was 11.7 µM (inactive). In [19], the GI50 is 3.51 µM (inactive).

On to `Cc1cc(N2CCCC2)c([N+](=O)[O-])cc1[N+](=O)[O-]`, for which the GI50 is > 100 µM (inactive) in experiment [1]; 90.4 µM (inactive) in experiment [2]; > 100 µM (inactive) in experiment [3]; > 100 µM (inactive) in experiment [4]; > 100 µM (inactive) in [5]; > 100 µM (inactive) in experiment [6]. Also, the GI50 in experiment [7], in [8], in experiment [9], in experiment [10], in experiment [11] and in experiment [12] was > 100 µM (inactive) throughout. The GI50 in [13], in [14], in experiment [15], in experiment [16], in experiment [17] and in experiment [18] was > 100 µM (inactive) in each case. In [19], the GI50 is > 100 µM (inactive).
